Assays:
Format in all cases: biochemical
PKR(G332S) = PKR(G332S) (Homo sapiens, UniProt P30613, G332S); test: Luminescence Assay Protocol (Kinase Glo Plus), PKR(G332S/with FBP); settings: PKRG332S, with FBP; for activation at 1.54 µM: compound 1.54 μM, read-out: C - AC50 LUM KGP FBP % Fold @ 1.54 μM mean; for AC50: gmean, read-out: A - AC50 LUM KGP FBP AC50 μM gmean; for Emax: highest % fold increase at any concentration, read-out: B - AC50 LUM KGP FBP MAX % FOLD mean
In short: (§1)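 Enzyme (wt 0.8 nM, R510Q 0.8 nM, G332S 10 nM) was preincubated 30 min at RT with compound and 100 μM PEP in Tris/KCl/MgCl2 buffer, then started with 100 μM ADP, plus 30 μM FBP for G332S. Luminescence was read after 45 min at RT. AC50 came from a four-parameter fit of % fold over DMSO across 42.5 μM–2.2 nM.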

PKR(R510Q) = PKR(R510Q) (Homo sapiens, UniProt P30613, R510Q); test: Luminescence Assay Protocol (Kinase Glo Plus), PKR(R510Q/without FBP); settings: PKRR510Q, without FBP; for activation at 1.54 µM: compound 1.54 μM, read-out: F - AC50 LUM KGP woFBP % Fold @ 1.54 μM mean; for AC50: gmean, read-out: D - AC50 LUM KGP woFBP AC50 μM gmean; for Emax: highest % fold increase at any concentration, read-out: E - AC50 LUM KGP woFBP MAX % FOLD mean
In short: as §1

PKR(wt) = PKR(wt) (Homo sapiens, UniProt P30613); test: Luminescence Assay Protocol (Kinase Glo Plus), PKR(Wt/without FBP); settings: without FBP; for activation at 1.54 µM: compound 1.54 μM, read-out: I - AC50 LUM KGP woFBP % Fold @ 1.54 μM mean; for AC50: gmean, read-out: G - AC50 LUM KGP woFBP AC50 μM gmean; for Emax: highest % fold increase at any concentration, read-out: H - AC50 LUM KGP woFBP MAX % FOLD mean
In short: as §1

Chain of PKR(wt) (P30613 whole entry): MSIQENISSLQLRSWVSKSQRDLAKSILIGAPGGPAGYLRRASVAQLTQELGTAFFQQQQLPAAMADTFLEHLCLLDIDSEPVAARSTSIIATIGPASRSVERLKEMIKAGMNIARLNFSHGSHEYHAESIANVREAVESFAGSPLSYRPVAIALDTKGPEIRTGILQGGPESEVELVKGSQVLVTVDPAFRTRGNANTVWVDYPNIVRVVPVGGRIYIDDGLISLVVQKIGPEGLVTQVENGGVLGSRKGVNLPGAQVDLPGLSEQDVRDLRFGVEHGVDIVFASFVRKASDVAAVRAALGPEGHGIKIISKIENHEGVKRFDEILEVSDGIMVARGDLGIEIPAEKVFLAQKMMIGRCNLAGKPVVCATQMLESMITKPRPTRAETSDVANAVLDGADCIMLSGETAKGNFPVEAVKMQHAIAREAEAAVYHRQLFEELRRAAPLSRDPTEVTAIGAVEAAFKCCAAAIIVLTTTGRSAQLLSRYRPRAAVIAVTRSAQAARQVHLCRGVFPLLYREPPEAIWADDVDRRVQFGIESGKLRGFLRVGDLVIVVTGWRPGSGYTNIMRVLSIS
Chain of PKR(R510Q) (P30613 whole entry R510Q): as the sequence (P30613 whole entry) above, with R510Q counted along it
Chain of PKR(G332S) (P30613 whole entry G332S): as the sequence (P30613 whole entry) above, with G332S counted along it

Row | Structure (SMILES) | activation at 1.54 µM (PKR(G332S)) | AC50 (PKR(G332S)) | Emax (PKR(G332S)) | activation at 1.54 µM (PKR(R510Q)) | AC50 (PKR(R510Q)) | Emax (PKR(R510Q)) | activation at 1.54 µM (PKR(wt)) | AC50 (PKR(wt)) | Emax (PKR(wt))
1 | CC1(C)CNc2cc(S(=O)(=O)N3CC4=C(CN(C(=O)[C@H](CO)c5ccccc5)C4)C3)ccc2O1 [Example 32, (S)-1-(5-((2,2-dimethyl-3,4-dihydro-2H-benzo[b][1,4]oxazin-6-yl)sulfonyl)-3,4,5,6-tetrahydropyrrolo[3,4-c]pyrrol-2(1H)-yl)-3-hydroxy-2-phenylpropan-1-one] | 75 to 250% | > 40 µM | 75 to 250% | 75 to 250% | ≤ 0.1 µM | 75 to 250% | 75 to 250% | ≤ 0.1 µM | 75 to 250%
2 | O=C([C@H](CO)c1ccccc1)N1CC2=C(C1)CN(S(=O)(=O)c1ccc3c(c1)NCCO3)C2 [Example 35, (S)-1-(5-((3,4-dihydro-2H-benzo[b][1,4]oxazin-6-yl)sulfonyl)-3,4,5,6-tetrahydropyrrolo[3,4-c]pyrrol-2(1H)-yl)-3-hydroxy-2-phenylpropan-1-one] | 75 to 250% | ≤ 0.1 µM | 75 to 250% | 250 to 500% | ≤ 0.1 µM | 250 to 500% | 75 to 250% | ≤ 0.1 µM | 75 to 250%
3 | COCC1(C(=O)N2CC3=C(C2)CN(S(=O)(=O)c2ccc4c(c2)NCCO4)C3)CC1 [Example 36, (5-((3,4-dihydro-2H-benzo[b][1,4]oxazin-6-yl)sulfonyl)-3,4,5,6-tetrahydropyrrolo[3,4-c]pyrrol-2(1H)-yl)(1-(methoxymethyl)cyclopropyl)methanone] | 75 to 250% | > 40 µM | 75 to 250% | 75 to 250% | 1 to 40 µM | 75 to 250% | 75 to 250% | 0.1 to 1 µM | 75 to 250%
4 | CC(C)(CO)C(=O)N1CC2=C(C1)CN(S(=O)(=O)c1ccc3c(c1)NCCO3)C2 [Example 37, 1-(5-((3,4-dihydro-2H-benzo[b][1,4]oxazin-6-yl)sulfonyl)-3,4,5,6-tetrahydropyrrolo[3,4-c]pyrrol-2(1H)-yl)-3-hydroxy-2,2-dimethylpropan-1-one] | 75 to 250% | > 40 µM | 75 to 250% | 250 to 500% | ≤ 0.1 µM | 250 to 500% | 75 to 250% | 0.1 to 1 µM | 75 to 250%
5 | O=C(C1CCOC1)N1CC2=C(C1)CN(S(=O)(=O)c1ccc3c(c1)NCCO3)C2 (stereo not drawn) [Example 39, (5-((3,4-dihydro-2H-benzo[b][1,4]oxazin-6-yl)sulfonyl)-3,4,5,6-tetrahydropyrrolo[3,4-c]pyrrol-2(1H)-yl)(tetrahydrofuran-3-yl)methanone] | 75 to 250% | ≤ 0.1 µM | 75 to 250% | 250 to 500% | 0.1 to 1 µM | 250 to 500% | 250 to 500% | 0.1 to 1 µM | 250 to 500%
6 | O=C(C1COc2ccccc21)N1CC2=C(C1)CN(S(=O)(=O)c1ccc3ncsc3c1)C2 (stereo not drawn) [Example 43, (5-(benzo[d]thiazol-6-ylsulfonyl)-3,4,5,6-tetrahydropyrrolo[3,4-c]pyrrol-2(1H)-yl)(2,3-dihydrobenzofuran-3-yl)methanone] | 75 to 250% | 0.1 to 1 µM | 75 to 250% | 250 to 500% | 1 to 40 µM | 250 to 500% | 250 to 500% | 0.1 to 1 µM | 250 to 500%
7 | CN1CCOc2ccc(S(=O)(=O)N3CC4=C(CN(C(=O)C(CO)c5ccccc5)C4)C3)cc21 (stereo not drawn) [Example 46, 3-hydroxy-1-(5-((4-methyl-3,4-dihydro-2H-benzo[b][1,4]oxazin-6-yl)sulfonyl)-3,4,5,6-tetrahydropyrrolo[3,4-c]pyrrol-2(1H)-yl)-2-phenylpropan-1-one] | 75 to 250% | > 40 µM | 75 to 250% | 75 to 250% | > 40 µM | 75 to 250% | 75 to 250% | ≤ 0.1 µM | 75 to 250%
8 | CN1CCOc2ccc(S(=O)(=O)N3CC4=C(CN(C(=O)C5CCOC5)C4)C3)cc21 (stereo not drawn) [Example 47, (5-((4-methyl-3,4-dihydro-2H-benzo[b][1,4]oxazin-6-yl)sulfonyl)-3,4,5,6-tetrahydropyrrolo[3,4-c]pyrrol-2(1H)-yl)(tetrahydrofuran-3-yl)methanone] | 75 to 250% | > 40 µM | 75 to 250% | 75 to 250% | 1 to 40 µM | 250 to 500% | 75 to 250% | 0.1 to 1 µM | 75 to 250%
9 | O=C(C(CO)c1ccccc1)N1CC2=C(C1)CN(S(=O)(=O)c1ccc3ncsc3c1)C2 (stereo not drawn) [Example 48, 1-(5-(benzo[d]thiazol-6-ylsulfonyl)-3,4,5,6-tetrahydropyrrolo[3,4-c]pyrrol-2(1H)-yl)-3-hydroxy-2-phenylpropan-1-one] | 75 to 250% | ≤ 0.1 µM | 75 to 250% | 250 to 500% | ≤ 0.1 µM | 250 to 500% | 250 to 500% | ≤ 0.1 µM | 250 to 500%
10 | O=C(C(CO)c1ccccc1)N1CC2=C(C1)CN(S(=O)(=O)c1ccc(OC(F)F)cc1)C2 (stereo not drawn) [Example 49, 1-(5-((4-(difluoromethoxy)phenyl)sulfonyl)-3,4,5,6-tetrahydropyrrolo[3,4-c]pyrrol-2(1H)-yl)-3-hydroxy-2-phenylpropan-1-one] | 75 to 250% | ≤ 0.1 µM | 75 to 250% | 250 to 500% | ≤ 0.1 µM | 250 to 500% | 250 to 500% | ≤ 0.1 µM | 250 to 500%
11 | O=C([C@H](CO)c1ccccc1)N1CC2=C(C1)CN(S(=O)(=O)c1cccnc1)C2 [Example 50, (2S)-3-hydroxy-2-phenyl-1-[5-(pyridine-3-sulfonyl)-1H,2H,3H,4H,5H,6H-pyrrolo[3,4-c]pyrrol-2-yl]propan-1-one] | 75 to 250% | 0.1 to 1 µM | 75 to 250% | 250 to 500% | 0.1 to 1 µM | 250 to 500% | 75 to 250% | 0.1 to 1 µM | 250 to 500%
12 | O=C([C@H](CO)c1ccccc1)N1CC2=C(C1)CN(S(=O)(=O)c1ccccn1)C2 [Example 51, (2S)-3-hydroxy-2-phenyl-1-[5-(pyridine-2-sulfonyl)-1H,2H,3H,4H,5H,6H-pyrrolo[3,4-c]pyrrol-2-yl]propan-1-one] | 75 to 250% | 0.1 to 1 µM | 75 to 250% | 250 to 500% | ≤ 0.1 µM | 250 to 500% | 250 to 500% | ≤ 0.1 µM | 250 to 500%
13 | O=C([C@H](CO)c1ccccc1)N1CC2=C(C1)CN(S(=O)(=O)c1ccc(C(F)(F)F)nc1)C2 [Example 52, (2S)-3-hydroxy-2-phenyl-1-(5-{[6-(trifluoromethyl)pyridin-3-yl]sulfonyl}-1H,2H,3H,4H,5H,6H-pyrrolo[3,4-c]pyrrol-2-yl)propan-1-one] | 75 to 250% | 0.1 to 1 µM | 75 to 250% | 75 to 250% | 1 to 40 µM | 250 to 500% | 75 to 250% | 0.1 to 1 µM | 75 to 250%
14 | COCCC(=O)N1CC2=C(C1)CN(S(=O)(=O)c1ccc3c(c1)N(C)CCO3)C2 [Example 53, 3-methoxy-1-(5-((4-methyl-3,4-dihydro-2H-benzo[b][1,4]oxazin-6-yl)sulfonyl)-3,4,5,6-tetrahydropyrrolo[3,4-c]pyrrol-2(1H)-yl)propan-1-one] | 75 to 250% | > 40 µM | 75 to 250% | 75 to 250% | 1 to 40 µM | 75 to 250% | 75 to 250% | 0.1 to 1 µM | 75 to 250%

Source: patent US11649242B2, “Pyrrolopyrrole compositions as pyruvate kinase (PKR) activators” (FORMA Therapeutics, Inc., priority 2017, dated 2023)
